The source of these data is PMC6452685, “Lysyl-tRNA synthetase as a drug target in malaria and cryptosporidiosis” (Proceedings of the National Academy of Sciences of the …, 2019).

Each structure is given as a SMILES string.

For experiment [1], the target named is T1, CYP2C9 (Homo sapiens, UniProt P11712).
T1 construct: purchased Cypex, Dundee, UK; host or cells: bacterial membranes (bactosomes)
The experiment in a line: Fluorescence-based CYP inhibition, CYP2C9. The format is in vitro ADME. The method, then:
4.7 F lu or e s ce nce-based CYP I nhibition usin g recombinantly expressed CYP b actosomes Fl uorogeni c C YP i nhi bi t i on s t udi es w ere c ondu ct ed at 37 °C i n 96-well, flat-bot t om, cl ear p ol y s t y rene pl at es. I ncubat i on mi xt ures cont ai ni ng Eas y C YP bact os omes (1000 pmol /ml , 10 mg /ml C y pex TM, Dundee, UK), fl uorogeni c substrate (Cypex TM) and 50 mM potas s i um phosphat e buffer (p H 7. 4) w er e prepared at t he fol l ow i ng fi nal concent rat i ons : C YP1A2, 5 pmol /ml + 35 µ M et hox y res orufi n (ER) ; CYP2C9, 10 pm ol/ml + 30 µM 7-methoxy-4-(tri fl uo romethy l )-coumari n (MFC ); C YP 2C 19, 5 pm ol /ml + 25 µM 3-cy ano-7-eth oxycoumarin (CEC); C YP 2D 6, 10 pmol /ml + 6 µM 7-meth oxy-4-(ami nomethy l )- coumari n (MAMC ); C YP 3A4, 10 pmol /ml + 1 µM diethoxyfluorescein (DEF) and 10 pmol /ml + 15 µM 7-benz y l ox y qui nol i ne (BQ ). […] 0125 ( 1A2 and 2C 9 onl y ) o r 0. 025 mg /ml (al l ot her i s oforms ). […] Positive control inhibitor, miconazole, was prepared as a 500 µM s olution in DMSO and similarly diluted.
For eac h i sofo rm, 2 20 µl of i ncubati on mi x was added to each wel l of a 96-well, flat-bot t om, cl ear pol y s t y rene pl at e. Al i quot s (5 µl) of each compound 5 conce ntrati on was then mi x ed wi th 220 µl of the incubation mix and pre-incubated at 37 °C for 5 min (final test compound concentration range: […]

Experiment [2] has as its system P. falciparum. Description: In vivo antimalarial efficacy in P. falciparum-infected SCID mice engrafted with human erythrocytes. To be noted: SCID mouse, orally once a day for 4 d.
Description: The l ev el of each comp ound i n mouse bl ood was determi ned by UPLC -MS/MS as previously re port e d (18). Pharmacokinetic parameters were derived from the blood c oncent ration time curve usi ng PKsol uti ons software v 2.0 (Summi t Research Servi ces, USA).
The mi ce were i ntrav enous l y i nfected with 2×107 P. fa l ci p a rum Pf3D700 87/ N9-infected erythrocytes (day 0). On day 3 after infection, mice (n=2) were rand oml y al l ocated to treatments that were admi nis tered once a day for 4 cons ecuti v e day s by oral g av ag e at 10 ml/k g.
The compo und c onc entrati on v ers us ti me data were anal yzed by non-compartmental anal ysi s (NCA) usi ng Phoeni xR Ve rsi on 6.3 (Pha rsi ght Corporati on, M ountai n Vi ew, CA, USA).
Femal e i mmunodefi ci ent NOD-sc i d I L-2Rγnull mi ce (NSG) (Charl es Ri v er, France) of 25-28 g r b ody w ei g ht w ere hou s ed i n The A rt of D i s cov ery ani mal faci li t y at BIC
In experiment [3] the target is PfKRS1 (Plasmodium falciparum, UniProt Q8IDJ8). The experiment in a line: PfKRS1 mode of inhibition, pyrophosphate generation (EnzChek). The experiment is classed as biochemical. Also noted: recombinant PfKRS1 (77–583 and 80–583); His (N); MBP (with TEV site) (N); made in house; host or cells: E. coli BL21 (DE3); codon-optimised gene from Genscript. Here is the method:
SUPPLEMENTARY INFORMATION glycerol pH 7.5/protease inhibitor tablets/DNAase) was added and the pellets for defrosted at room temperature for approximately 10 min. The slurry was then passed through a Cell Disrupter (Constant Systems) set at 30 KPSI to l yse the cel ls. The s ample w as t hen cent ri fug ed at 40, 000g for 2 0 mi n. The supernatant was then filtered using syringe filters to 0.45 µm. The s upernat ant w as l oaded ont o a 5 ml Hi Trap Ni HP col umn that had been eq ui l i brated wi th Buffer A (25 m M HEP ES /5 00 m M NaC l /2 0 mM Imi dazol e/2 mM DTT/10% Gl ycerol pH 7.5) at 5 ml /mi n usi ng an AKTA Pure system. Once l oaded the column was washed with 10 column volumes buffer A. A 5% step of Buf fer B (25 mM HEPES /50 0 mM NaC l /500 mM I mi daz ol e/2mM D TT/ 10% Glycerol pH 7.5) was then used to wash off His rich contami nati ng protei ns . […]
2.5 PfKR S1, CpKRS and HsKR S Pyr oph osphate Ge ne r ation EnzChe kTM Ki ne tic M e asur e me nts Steady-state kinetic measurements were conduc ted at room temperature using a PheraStar plate re a de r (BM G ). End-poi nt s fo r t he ami noacy l at i on react i on of PfKRS1, which produces inorganic py roph os phat e t hat i s conv ert ed t o t w o mol ecules of i norg ani c phos phat e us i ng a py rophos phat as e enzyme, were measured usi ng the EnzChek™ Pho sphate Assay Ki t, whi ch gives an absorbance read - out at 36 0 nm. […] The reaction was carried out for 6 h (PfKRS1 an d CpKRS) or 1 2 h (HsKRS) at ro om temperature and then the absorbance o f each wel l was read at 360 nm. The s ubs t rat es Km values were determined by varying the concentration of one of the substrates at saturati ng concentrati on of the othe r. […]
where V is the maximal velocity (here expressed as µM/min of phosphate production), S is the substrate concentration a nd K is the Michaelis constant for the substrate (Km). […]

In general, IC50 refers to the point on the concentration scale where inhibition reaches its midpoint. Usually Ki stands for a measure of affinity in units of concentration, obtained from inhibition or displacement.

Chain of PfKRS1 (Q8IDJ8 entry or part of it): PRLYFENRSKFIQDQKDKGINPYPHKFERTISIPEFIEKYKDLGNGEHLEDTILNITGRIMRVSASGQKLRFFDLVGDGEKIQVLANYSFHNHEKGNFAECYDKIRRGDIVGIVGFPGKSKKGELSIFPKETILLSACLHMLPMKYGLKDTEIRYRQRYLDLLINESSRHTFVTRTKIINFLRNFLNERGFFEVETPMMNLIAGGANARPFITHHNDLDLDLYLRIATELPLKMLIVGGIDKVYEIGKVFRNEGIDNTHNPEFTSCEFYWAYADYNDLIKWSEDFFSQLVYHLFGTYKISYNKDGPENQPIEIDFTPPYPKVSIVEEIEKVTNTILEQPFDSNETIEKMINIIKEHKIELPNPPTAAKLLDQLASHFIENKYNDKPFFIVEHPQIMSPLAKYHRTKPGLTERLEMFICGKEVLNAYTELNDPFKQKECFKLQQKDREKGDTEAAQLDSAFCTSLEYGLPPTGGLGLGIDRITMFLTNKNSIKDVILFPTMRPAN
T1 sequence (P11712 whole entry): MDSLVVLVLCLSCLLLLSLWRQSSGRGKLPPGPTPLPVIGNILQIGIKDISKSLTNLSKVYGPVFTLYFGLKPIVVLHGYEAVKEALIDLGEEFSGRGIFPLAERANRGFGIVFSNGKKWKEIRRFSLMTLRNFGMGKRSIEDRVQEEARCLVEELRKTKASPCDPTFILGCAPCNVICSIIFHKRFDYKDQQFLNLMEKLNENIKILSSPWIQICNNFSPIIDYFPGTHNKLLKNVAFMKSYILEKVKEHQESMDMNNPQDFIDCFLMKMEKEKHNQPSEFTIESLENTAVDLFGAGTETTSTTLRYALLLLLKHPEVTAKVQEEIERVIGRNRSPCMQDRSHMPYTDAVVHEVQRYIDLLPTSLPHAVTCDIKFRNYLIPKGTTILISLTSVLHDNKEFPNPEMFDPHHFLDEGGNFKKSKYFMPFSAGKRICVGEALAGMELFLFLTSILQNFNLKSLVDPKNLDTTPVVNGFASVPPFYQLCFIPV

Consider `O=C(NCC1(O)CCC(F)(F)CC1)c1cc(=O)c2cc(F)ccc2o1` [Compound 5], for which the IC50 in experiment [1] is above 10000 nM; in experiment [3] (saturating concentrations of both substrates), 210 nM. Moreover, the “AUCED90, estimated daily exposure in blood reducing parasitemia by 90% at day 5” value in experiment [2] is recorded as 11,000 ng⋅h⋅ml^−1⋅d^−1. Further, in experiment [2], the “ED90, daily oral dose reducing parasitemia by 90% at day 5” value is listed as 1.5 mg⋅kg^−1. In addition, the “Ki, linear uncompetitive inhibition vs. L-lysine” value in experiment [3] (EnzChek, saturating ATP) amounted to 212 nM. The Ki in experiment [3] (EnzChek, saturating L-lysine, read-out: Ki, linear competitive inhibition vs. ATP) was 32 nM.
